Measured values reported in patent US11427567B2, “Imidazolyl pyrimidinylamine compounds as CDK2 inhibitors” (Incyte Corporation, priority 2019, dated 2022).

These compounds were tested against CDK2/Cyclin E1 (Homo sapiens (Human), UniProt P24941) (assay: CDK2/Cyclin E1 HTRF enzyme activity assay (Example A)). Settings: 1 mM ATP.
Type: biochemical
Procedure: Assays were conducted in white 384-well polystyrene plates in a final reaction volume of 8 μL. […] HTRF signals were read after 1 hour at room temperature on a PHERAstar FS plate reader (BMG Labtech). Data was analyzed with IDBS XLFit and GraphPad Prism 5.0 software using a three or four parameter dose response curve to determine IC50 for each compound.

| IC50 | Compound |
| --- | --- |
| ≤ 50 nM | CS(=O)(=O)N1CCC(Nc2ncc(C(F)(F)F)c(-c3cn(-c4ccc(C#N)nc4CO)cn3)n2)CC1 [Example 236, 6-(Hydroxymethyl)-5-(4-(2-((1-(methylsulfonyl)piperidin-4-yl)amino)-5-(trifluoromethyl)pyrimidin-4-yl)-1H-imidazol-1-yl)picolinonitrile] |
| ≤ 50 nM | CS(=O)(=O)N1CCC(Nc2ncc(C(F)(F)F)c(-c3cn(-c4ccc(Cn5ncnn5)cc4Cl)cn3)n2)CC1 [Example 243, 4-(1-(4-((2H-Tetrazol-2-yl)methyl)-2-chlorophenyl)-1H-imidazol-4-yl)-N-(1-(methylsulfonyl)piperidin-4-yl)-5-(trifluoromethyl)pyrimidin-2-amine] |
| ≤ 50 nM | Cc1nc(-c2nc(N[C@H]3CCN(S(C)(=O)=O)C[C@H]3F)ncc2C(F)(F)F)cn1-c1ccncc1F [Example 298, N-((3R,4S)-3-Fluoro-1-(methylsulfonyl)piperidin-4-yl)-4-(1-(3-fluoropyridin-4-yl)-2-methyl-1H-imidazol-4-yl)-5-(trifluoromethyl)pyrimidin-2-amine] |
| ≤ 50 nM | CS(=O)(=O)N1CC[C@H](Nc2ncc(C(F)(F)F)c(-c3cn(-c4ccc(C(F)(F)F)cc4C#N)cn3)n2)[C@H](F)C1 [Example 68, 2-(4-(2-(((3R,4S)-3-Fluoro-1-(methylsulfonyl)piperidin-4-yl)amino)-5-(trifluoromethyl)pyrimidin-4-yl)-1H-imidazol-1-yl)-5-(trifluoromethyl)benzonitrile] |
| ≤ 50 nM | Cc1ccc(-n2cnc(-c3nc(N[C@H]4CCN(S(C)(=O)=O)C[C@H]4F)ncc3C(F)(F)F)c2)c(C#N)n1 [Example 51, 3-(4-(2-(((3R,4S)-3-Fluoro-1-(methylsulfonyl)piperidin-4-yl)amino)-5-(trifluoromethyl)pyrimidin-4-yl)-1H-imidazol-1-yl)-6-methylpicolinonitrile] |
| ≤ 50 nM | CC1(O)CN(Cc2cccc(-n3cnc(-c4nc(NC5CCN(S(C)(=O)=O)CC5)ncc4C(F)(F)F)c3)c2Cl)C1 [Example 362, 1-(2-Chloro-3-(4-(2-((1-(methylsulfonyl)piperidin-4-yl)amino)-5-(trifluoromethyl)pyrimi-din-4-yl)-1H-imidazol-yl)benzyl)-3-methylazetidin-3-ol] |
| ≤ 50 nM | CCNCc1ccc(-n2cc(-c3nc(NC4CCN(S(C)(=O)=O)CC4)ncc3C(F)(F)F)nc2C)c(F)c1 [Example 359, 4-(1-(4-((Ethylamino)methyl)-2-fluorophenyl)-2-methyl-1H-imidazol-4-yl)-N-(1-(methylsulfonyl)piperidin-4-yl)-5-(trifluoromethyl)pyrimidin-2-amine] |
| ≤ 50 nM | CS(=O)(=O)N1CCC(Nc2ncc(C(F)(F)F)c(-c3cn(-c4cccc(C#N)c4Br)cn3)n2)CC1 [Example 63, 2-Bromo-3-(4-(2-((1-(methylsulfonyl)piperidin-4-yl)amino)-5-(trifluoromethyl)pyrimidin-4-yl)-1H-imidazol-1-yl)benzonitrile] |
| ≤ 50 nM | CN(C)CCc1cccc(-n2cnc(-c3nc(NC4CCN(S(C)(=O)=O)CC4)ncc3C(F)(F)F)c2)c1Cl [Example 370, 4-(1-(2-Chloro-3-(2-(dimethylamino)ethyl)phe-nyl)-1H-imidazol-4-yl)-N-(1-(methylsulfonyl)piperidin-4-yl)-5-(trifluoromethyl)pyrimi-din-2-amine] |
| ≤ 50 nM | CS(=O)(=O)N1CCC(Nc2ncc(C(F)(F)F)c(-c3cn(-c4ccc5cccnc5c4Br)cn3)n2)CC1 [Example 163, 4-(1-(8-Bromoquinolin-7-yl)-1H-imidazol-4-yl)-N-(1-(methyl-sulfonyl)piperidin-4-yl)-5-(trifluoromethyl)-pyrimidin-2-amine] |
| ≤ 50 nM | CN(C)C(=O)c1ccc(-n2cnc(-c3nc(NC4CCN(S(C)(=O)=O)CC4)ncc3C(F)(F)F)c2)c(Cl)c1F [Example 136, 3-Chloro-2-fluoro-N,N-dimethyl-4-(4-(2-((1-(methylsulfonyl)piperidin-4-yl)amino)-5-(trifluoromethyl)pyrimidin-4-yl)-1H-imidazol-1-yl)benzamide] |
| ≤ 50 nM | CCNCc1ccc(-n2cnc(-c3nc(NC4CCN(S(C)(=O)=O)CC4)ncc3C(F)(F)F)c2)c(C(F)(F)F)c1 [Example 255, 4-(1-(4-((Ethylamino)methyl)-2-(trifluoromethyl)phenyl)-1H-imidazol-4-yl)-N-(1-(methylsulfonyl)piperidin-4-yl)-5-(trifluoromethyl)pyrimidin-2-amine] |
| ≤ 50 nM | Cc1c(-n2cnc(-c3nc(NC4CCN(S(=O)(=O)c5cn(C)cn5)CC4)ncc3C(F)(F)F)c2)ccnc1N [Example 9, 4-(1-(2-Amino-3-methylpyridin-4-yl)-1H-imidazol-4-yl)-N-(1-((1-methyl-1H-imidazol-4-yl)sulfonyl)piperidin-4-yl)-5-(trifluoromethyl)pyrimidin-2-amine] |
| ≤ 50 nM | Cc1ncn(C)c1-c1ccc(-n2cnc(-c3nc(NC4CCN(S(C)(=O)=O)CC4)ncc3C(F)(F)F)c2)c(Cl)c1 [Example 123, 4-(1-(2-Chloro-4-(1,4-dimethyl-1H-imidazol-5-yl)phenyl)-1H-imidazol-4-yl)-N-(1-(methylsulfonyl)-piperidin-4-yl)-5-(trifluoromethyl)-pyrimidin-2-amine] |
| ≤ 50 nM | Cc1nc(-c2nc(NC3CCN(S(C)(=O)=O)CC3)ncc2C(F)(F)F)cn1-c1ccc(N2CCC(N3CCC(O)C3)CC2)cc1F (centres unmarked) [Example 455, 1-(1-(3-Fluoro-4-(2-methyl-4-(2-((1-(methylsulfonyl)piperidin-4-yl)amino)-5-(trifluoromethyl)pyrimidin-4-yl)-1H-imidazol-1-yl)phenyl)piperidin-4-yl)pyrrolidin-3-ol] |
| ≤ 50 nM | CCN1CCN(Cc2cc(F)c(-n3cnc(-c4nc(N[C@@H]5CCN(S(C)(=O)=O)C[C@H]5F)ncc4C(F)(F)F)c3)c(F)c2)CC1 [Example 392, 4-(1-(4-((4-Ethylpiperazin-1-yl)methyl)-2,6-difluorophenyl)-1H-imidazol-4-yl)-N-((3R,4R)-3-fluoro-1-(methyslulfonyl)piperidin-4-yl)-5-(trifluoromethyl)pyrimidin-2-amine] |
| ≤ 50 nM | Cc1nc(-c2nc(NC3CCN(S(C)(=O)=O)CC3)ncc2C(F)(F)F)cn1-c1ccc(CN2CC(O)C2)cc1F [Example 355, 1-(3-Fluoro-4-(2-methyl-4-(2-((1-(methylsulfonyl)piperidin-4-yl)amino)-5-(trifluoromethyl)pyrimidin-4-yl)-1H-imidazol-1-yl)benzyl)azetidin-3-ol] |
| ≤ 50 nM | Cc1nc(-c2nc(NC3CCN(S(C)(=O)=O)CC3)ncc2C(F)(F)F)cn1-c1ccc(C2CN(C[C@H](C)O)C2)cc1F [Example 419, (S)-1-(3-(3-Fluoro-4-(2-methyl-4-(2-((1-(methylsulfonyl)piperidin-4-yl)amino)-5-(trifluoromethyl)pyrimidin-4-yl)-1H-imidazol-1-yl)phenyl)azetidin-1-yl)propan-2-ol] |
| ≤ 50 nM | Cn1cc(-c2ccc(-n3cnc(-c4nc(NC5CCN(S(C)(=O)=O)CC5)ncc4C(F)(F)F)c3)c(C(F)(F)F)n2)cn1 [Example 98, 4-(1-(6-(1-Methyl-1H-pyrazol-4-yl)-2-(trifluoromethyl)pyridin-3-yl)-1H-imidazol-4-yl)-N-(1-(methylsulfonyl)piperidin-4-yl)-5-(trifluoromethyl) pyrimidin-2-amine] |
| ≤ 50 nM | CC(C)NCc1cc(F)c(-n2cnc(-c3nc(N[C@@H]4CCN(S(C)(=O)=O)C[C@H]4F)ncc3C(F)(F)F)c2)c(Cl)c1 [Example 405, 4-(1-(2-Chloro-6-fluoro-4-((isopropylamino)methyl)phenyl)-1H-imidazol-4-yl)-N-((3R,4R)-3-fluoro-1-(methylsulfonyl)piperidin-4-yl)-5-(trifluoromethyl)pyrimidin-2-amine] |
| ≤ 50 nM | CS(=O)(=O)N1CCC(Nc2ncc(C(F)(F)F)c(-c3cn(-c4ccc(CN5CCC5)nc4C(F)(F)F)cn3)n2)CC1 [Example 247, 4-(1-(6-(Azetidin-1-ylmethyl)-2-(trifluoromethyl)pyridin-3-yl)-1H-imidazol-4-yl)-N-(1-(methylsulfonyl)piperidin-4-yl)-5-(trifluoromethyl)pyrimidin-2-amine] |
| ≤ 50 nM | CCC(O)c1cccc(-n2cnc(-c3nc(NC4CCN(S(C)(=O)=O)CC4)ncc3C(F)(F)F)c2)c1Cl (centres unmarked) [Example 85, 1-(2-Chloro-3-(4-(2-((1-(methylsulfonyl)piperidin-4-yl)amino)-5-(trifluoromethyl)pyrimidin-4-yl)-1H-imidazol-1-yl)phenyl)propan-1-ol] |
| ≤ 50 nM | Cc1nc(-c2nc(NC3CCN(S(C)(=O)=O)CC3)ncc2C(F)(F)F)cn1-c1ccc(OC[C@@H]2CCCN2C)cc1F [Example 425, (S)-4-(1-(2-Fluoro-4-((1-methylpyrrolidin-2-yl)methoxy)phenyl)-2-methyl-1H-imidazol-4-yl)-N-(1-(methylsulfonyl)piperidin-4-yl)-5-(trifluoromethyl)pyrimidin-2-amine] |
| ≤ 50 nM | Cc1nc(-c2nc(NC3CCN(S(C)(=O)=O)CC3)ncc2C(F)(F)F)cn1-c1ccnc(C#N)c1F [Example 309, 3-Fluoro-4-(2-methyl-4-(2-((1-(methylsulfonyl)piperidin-4-yl)amino)-5-(trifluoromethyl)pyrimidin-4-yl)-1H-imidazol-1-yl)picolinonitrile] |
| ≤ 50 nM | CS(=O)(=O)N1CCC(Nc2ncc(C(F)(F)F)c(-c3cn(C(CC#N)C4CC4)cn3)n2)CC1 (centres unmarked) [Example 25, 3-Cyclopropyl-3-(4-(2-((1-(methylsulfonyl)piperidin-4-yl)amino)-5-(trifluoromethyl)pyrimidin-4-yl)-1H-imidazol-1-yl)propanenitrile] |
| ≤ 50 nM | CS(=O)(=O)N1CCC(Nc2ncc(C(F)(F)F)c(-c3cn(-c4cccnc4C(F)F)cn3)n2)CC1 [Example 37, 4-(1-(2-(Difluoromethyl)pyridin-3-yl)-1H-imidazol-4-yl)-N-(1-(methylsulfonyl)piperidin-4-yl)-5-(trifluoromethyl)pyrimidin-2-amine] |
